Reference: US20230060588A1 (priority 2021, published 2023)

Columns and labels:
A375 cells [1] = test system: A375 cells
A375 cells [2] = assay type: cell-based
SARS-CoV-2 = details: cited from earlier work
PANC1 cells [3] = assay type: cell-based
MCF7 cells [4] = assay type: cell-based
MCF7 cells [5] = assay type: cell-based; remark: listed apart in the source
MDA-MB-231 cells = assay type: cell-based
PANC1 cells [6] = assay type: cell-based; remark: listed apart in the source
ACE2 = assay type: cell-based, human
SARS-CoV-2 S1 protein = assay type: cell-based
[7] = test system: SARS-CoV-2 S1 protein-ACE2; assay type: binding
[8] = test system: Reporter mNeonGreen SARS-CoV-2 virus (2019-nCoV/USA_WA1/2020); assay type: cell-based
LN18 cells = assay type: cell-based
A549 cells = assay type: cell-based, human
MCF7 cells [9] = test system: MCF7 cells

For `CC(=O)OC1O[C@H](CO)[C@@H](OC(C)=O)[C@H](O)[C@@H]1O` (stereo partly drawn) [1,4-di-O-acetyl-D-mannopyranose], the cell viability (A375 cells [1]) was “did not have any influence on cell viability”, the ECL binding (A375 cells [2]) was “no effect” and the MAL2 binding (A375 cells [2]) was “no effect”. For the same molecule, the PNA binding (A375 cells [2]) was “significantly reduced” and the SNA binding (A375 cells [2]) was “no effect”.
In the case of `CN(Cc1cnc2nc(N)nc(N)c2n1)c1ccc(C(=O)N[C@@H](CCC(=O)O)C(=O)O)cc1` [methotrexate], the SARS-CoV-2 replication (SARS-CoV-2) is given as “reduced”.
With `O=C[C@@H](O)[C@@H](O)[C@H](O)[C@H](O)CO` [D-mannose] the ECL binding (PANC1 cells [3]) was “generally reduced”, the MAL2 binding (PANC1 cells [3]) was “increasing” and the PNA binding (PANC1 cells [3]) was “generally reduced”. The SNA binding (PANC1 cells [3]) was “increasing”, the “disialyl T antigen/T antigen ratio” value (MCF7 cells [4]) was “significantly enhanced” and the “sialylation of complex N-glycans” value (MCF7 cells [4]) was “sialic acids were added to multiple N-glycans”. The cytotoxicity (A549 ACE2+ cells) was “no observed cytotoxicity”, the total cell count (A549 ACE2+ cells) was “negligible difference in cell count” and the ECL binding (MCF7 cells [5]) was “generally reduced”. For the same molecule, the MAL2 binding (MCF7 cells [5]) was “increasing”, the PNA binding (MCF7 cells [5]) was “generally reduced” and the SNA binding (MCF7 cells [5]) was “increasing”. For the same molecule, the ECL binding (MDA-MB-231 cells) was “significantly reduced”, the MAL2 binding (MDA-MB-231 cells) was “no effect on enhancing” and the PNA binding (MDA-MB-231 cells) was “significantly reduced”. The SNA binding (MDA-MB-231 cells) was “no effect on enhancing”, the “disialyl T antigen/T antigen ratio” value (PANC1 cells [6]) was “significantly increased” and the “sialyl T antigen/T antigen ratio” value (PANC1 cells [6]) was “significantly increased”. For the same molecule, the ACE2 expression (ACE2) was “did not significantly change”, the “ECL binding to S1 protein” value (SARS-CoV-2 S1 protein) was “significantly reduced” and the “MAL1 binding to S1 protein” value (SARS-CoV-2 S1 protein) was “moderately reduced”. The “MAL2 binding to S1 protein” value (SARS-CoV-2 S1 protein) was “moderately reduced”, the “PNA binding to S1 protein” value (SARS-CoV-2 S1 protein) was “No PNA binding was observed” and the “RSL binding to S1 protein” value (SARS-CoV-2 S1 protein) was “significantly reduced”. For the same molecule, the “SNA binding to S1 protein” value (SARS-CoV-2 S1 protein) was “no change”, the “ACE2 binding of S1 protein” value [7] was “reduced ACE2 binding” and the cytoprotection [8] was “significant cytoprotection”. The “reduction in viral replication” value [8] was ~70%, the ECL binding (LN18 cells) was “significantly reduced” and the MAL2 binding (LN18 cells) was “no effect on enhancing”. For the same molecule, the PNA binding (LN18 cells) was “significantly reduced”, the SNA binding (LN18 cells) was “no effect on enhancing” and the ECL binding (A549 cells) was “significantly reduced”. For the same molecule, the MAL2 binding (A549 cells) was “slightly enhancing”, the PNA binding (A549 cells) was “minimal to no influence” and the SNA binding (A549 cells) was “minimal to no influence”.
For `CC(=O)OC1O[C@H](CO)[C@@H](OC(C)=O)[C@H](OC(C)=O)[C@@H]1OC(C)=O` (stereo partly drawn) [1,2,3,4-tetra-O-Acetyl-D-mannopyranose], the cell toxicity (MCF7 cells [9]) was “induced cell toxicity at a higher concentration”, the “concentrations having no impact on cell viability” value (MCF7 cells [9]; human) was “less than 0.7 mM” and the ECL binding (MCF7 cells [5]) was “moderately reduced”. For the same molecule, the MAL2 binding (MCF7 cells [5]) was “no effect”, the PNA binding (MCF7 cells [5]) was “significantly reduced” and the SNA binding (MCF7 cells [5]) was “no effect”.
